Experiment: Fluorescent solution phase glucose responsive assay (pH 7.4, 298 K)
Conditions: Ex 470 nm
Procedure: Fluorescence spectroscopy was performed on either a HORIBA Duetta or BMG Labtech CLARIOstar plus plate reader. Emission spectra were obtained using the appropriate excitation wavelength and at a temperature of either 298 or 310 K and at pH 7.4 unless otherwise stated. Data collection and analysis were performed using EzSpec software by HORIBA or CLARIOstar MARS software by BMG Labtech. Further analysis and processing were performed in Microsoft Excel.
A solution of GBM and FIM at the required concentrations were created in the appropriate media. The emission spectrum of the assay was then acquired by exciting at the designated excitation wavelength to obtain the baseline emission intensity for the assay. Aliquots of 2 M D-glucose (in the same media) were then added to give the required final glucose concentrations (e.g. 15 μL of 2 M D-glucose in 3 mL gives a final D-glucose concentration of 10 mM) and the assay allowed to reach equilibration. The emission spectra were collected after each addition of D-glucose and compared to the original baseline emission, monitoring at the typical emission maximum (Emmax), and the percentage increase or decrease recorded. Emission spectra acquired on either a Horiba Duetta fluorometer or Clariostar plus plate reader.
The glucose responsive fluorescence emission for different combinations of glucose binding molecules (GBM) and fluorescent inhibitor molecules (FIM) at various concentrations and in various media was tested as described above. All results obtained at pH 7.4 and 298 K unless otherwise stated.
All results obtained at pH 7.4 and 298 K unless otherwise stated.
Table 4 provides the composition of the assay media used as the code assigned to each media as used in Tables 1 to 3.

Compound: Cc1ccc2n1[B-](F)(F)[N+]1=C(/C=C/c3ccc(C(=O)O)cc3)C=CC1=C2c1ccccc1OCc1cn(CCOCCOCCOCCO[C@@H]2O[C@H](CO)[C@@H](O)[C@H](O)[C@H]2O)nn1 [FIM31]
- Change in Emmax for FIM at a particular D-glucose concentration (20 mM D-glucose, GBM22 5 μM, FIM 1 μM, medium A, Emmax 590 nm): 90%

Compound: CC(C)(C)OC(=O)N[C@@H](Cc1cn(CCCC[C@@H](C(=O)Nc2ccc(CCO[C@@H]3O[C@H](CO)[C@@H](O)[C@H](O)[C@H]3O)cc2)[N+](C)(C)C)nn1)C(=O)NCCOCCOCCOCCn1cc(CNC(=O)c2ccc3c(c2)C(=O)OC32c3ccc(O)cc3Oc3cc(O)ccc32)nn1 [FIM32]
- Change in Emmax for FIM at a particular D-glucose concentration (5 mM D-glucose, GBM15 10 μM, FIM 1 μM, medium B, Emmax 520 nm): 170%
- Change in Emmax for FIM at a particular D-glucose concentration (5 mM D-glucose, GBM15 50 μM, FIM 0.5 μM, medium B, Emmax 520 nm): 140%
- Change in Emmax for FIM at a particular D-glucose concentration (5 mM D-glucose, GBM15 50 μM, FIM 5 μM, medium B, Emmax 520 nm): 110%
- Change in Emmax for FIM at a particular D-glucose concentration (5 mM D-glucose, GBM15 50 μM, FIM 10 μM, medium B, Emmax 520 nm): 110%
- Change in Emmax for FIM at a particular D-glucose concentration (5 mM D-glucose, GBM15 100 μM, FIM 1 μM, medium B, Emmax 520 nm): 95%
- Change in Emmax for FIM at a particular D-glucose concentration (5 mM D-glucose, GBM15 200 μM, FIM 2 μM, medium B, Emmax 520 nm): 85%
- Change in Emmax for FIM at a particular D-glucose concentration (5 mM D-glucose, GBM15 200 μM, FIM 5 μM, medium B, Emmax 520 nm): 50%
- Change in Emmax for FIM at a particular D-glucose concentration (5 mM D-glucose, GBM15 200 μM, FIM 10 μM, medium B, Emmax 520 nm): 50%
- Change in Emmax for FIM at a particular D-glucose concentration (10 mM D-glucose, GBM15 10 μM, FIM 1 μM, medium B, Emmax 520 nm): 190%
- Change in Emmax for FIM at a particular D-glucose concentration (10 mM D-glucose, GBM15 50 μM, FIM 0.5 μM, medium B, Emmax 520 nm): 195%
- Change in Emmax for FIM at a particular D-glucose concentration (10 mM D-glucose, GBM15 50 μM, FIM 5 μM, medium B, Emmax 520 nm): 155%
- Change in Emmax for FIM at a particular D-glucose concentration (10 mM D-glucose, GBM15 50 μM, FIM 10 μM, medium B, Emmax 520 nm): 145%
- Change in Emmax for FIM at a particular D-glucose concentration (10 mM D-glucose, GBM15 100 μM, FIM 1 μM, medium B, Emmax 520 nm): 135%
- Change in Emmax for FIM at a particular D-glucose concentration (10 mM D-glucose, GBM15 200 μM, FIM 2 μM, medium B, Emmax 520 nm): 115%
- Change in Emmax for FIM at a particular D-glucose concentration (10 mM D-glucose, GBM15 200 μM, FIM 5 μM, medium B, Emmax 520 nm): 85%
- Change in Emmax for FIM at a particular D-glucose concentration (10 mM D-glucose, GBM15 200 μM, FIM 10 μM, medium B, Emmax 520 nm): 85%
- Change in Emmax for FIM at a particular D-glucose concentration (20 mM D-glucose, GBM15 10 μM, FIM 1 μM, medium B, Emmax 520 nm): 200%
- Change in Emmax for FIM at a particular D-glucose concentration (20 mM D-glucose, GBM15 50 μM, FIM 0.5 μM, medium B, Emmax 520 nm): 240%
- Change in Emmax for FIM at a particular D-glucose concentration (20 mM D-glucose, GBM15 50 μM, FIM 5 μM, medium B, Emmax 520 nm): 185%
- Change in Emmax for FIM at a particular D-glucose concentration (20 mM D-glucose, GBM15 50 μM, FIM 10 μM, medium B, Emmax 520 nm): 190%
- Change in Emmax for FIM at a particular D-glucose concentration (20 mM D-glucose, GBM15 100 μM, FIM 1 μM, medium B, Emmax 520 nm): 160%
- Change in Emmax for FIM at a particular D-glucose concentration (20 mM D-glucose, GBM15 200 μM, FIM 2 μM, medium B, Emmax 520 nm): 145%
- Change in Emmax for FIM at a particular D-glucose concentration (20 mM D-glucose, GBM15 200 μM, FIM 5 μM, medium B, Emmax 520 nm): 125%
- Change in Emmax for FIM at a particular D-glucose concentration (20 mM D-glucose, GBM15 200 μM, FIM 10 μM, medium B, Emmax 520 nm): 115%
- Change in Emmax for FIM at a particular D-glucose concentration (40 mM D-glucose, GBM15 10 μM, FIM 1 μM, medium B, Emmax 520 nm): 220%
- Change in Emmax for FIM at a particular D-glucose concentration (40 mM D-glucose, GBM15 50 μM, FIM 0.5 μM, medium B, Emmax 520 nm): 265%
- Change in Emmax for FIM at a particular D-glucose concentration (40 mM D-glucose, GBM15 50 μM, FIM 5 μM, medium B, Emmax 520 nm): 205%
- Change in Emmax for FIM at a particular D-glucose concentration (40 mM D-glucose, GBM15 100 μM, FIM 1 μM, medium B, Emmax 520 nm): 220%
- Change in Emmax for FIM at a particular D-glucose concentration (40 mM D-glucose, GBM15 200 μM, FIM 2 μM, medium B, Emmax 520 nm): 200%
- Change in Emmax for FIM at a particular D-glucose concentration (40 mM D-glucose, GBM15 200 μM, FIM 5 μM, medium B, Emmax 520 nm): 175%
- Change in Emmax for FIM at a particular D-glucose concentration (40 mM D-glucose, GBM15 200 μM, FIM 10 μM, medium B, Emmax 520 nm): 130%
- Change in Emmax for FIM at a particular D-glucose concentration (60 mM D-glucose, GBM15 50 μM, FIM 0.5 μM, medium B, Emmax 520 nm): 310%
- Change in Emmax for FIM at a particular D-glucose concentration (60 mM D-glucose, GBM15 50 μM, FIM 5 μM, medium B, Emmax 520 nm): 225%
- Change in Emmax for FIM at a particular D-glucose concentration (60 mM D-glucose, GBM15 200 μM, FIM 2 μM, medium B, Emmax 520 nm): 215%
- Change in Emmax for FIM at a particular D-glucose concentration (60 mM D-glucose, GBM15 200 μM, FIM 5 μM, medium B, Emmax 520 nm): 190%
- Change in Emmax for FIM at a particular D-glucose concentration (60 mM D-glucose, GBM15 200 μM, FIM 10 μM, medium B, Emmax 520 nm): 160%
- Change in Emmax for FIM at a particular D-glucose concentration (80 mM D-glucose, GBM15 50 μM, FIM 5 μM, medium B, Emmax 520 nm): 235%
- Change in Emmax for FIM at a particular D-glucose concentration (80 mM D-glucose, GBM15 200 μM, FIM 5 μM, medium B, Emmax 520 nm): 200%
- Change in Emmax for FIM at a particular D-glucose concentration (80 mM D-glucose, GBM15 200 μM, FIM 10 μM, medium B, Emmax 520 nm): 170%

Compound: O=C(CNC(=O)[C@H](Cc1cn(CCOCCOCCOCCOc2ccc(CCO[C@@H]3O[C@H](CO)[C@@H](O)[C@H](O)[C@H]3O)cc2)nn1)NC(=O)CCCC[C@@H]1SC[C@@H]2NCN[C@@H]21)Nc1ccc2c(c1)C(=O)OC21c2ccc(O)cc2Oc2cc(O)ccc21 [FIM35]
- Change in Emmax for FIM at a particular D-glucose concentration (20 mM D-glucose, GBM29 50 μM, FIM 1 μM, medium B, Emmax 520 nm): 60%
- Change in Emmax for FIM at a particular D-glucose concentration (20 mM D-glucose, GBM29 50 μM, FIM 1 μM, medium B, Emmax 520 nm, separate GBM and FIM components mixed with 0.25 molar equivalents of streptavidin tetramer prior to formulation of assay): 40%

Compound: C[N+](C)(C)[C@@H](CCCCNC(=O)[C@@H](N)CCCCn1cc(CNC(=O)c2ccc3c(c2)C2(OC3=O)c3ccc(N)c(S(=O)(=O)O)c3Oc3c2ccc(N)c3S(=O)(=O)O)nn1)C(=O)Nc1ccc(CCO[C@@H]2O[C@H](CO)[C@@H](O)[C@H](O)[C@H]2O)cc1 [FIM39]
- Change in Emmax for FIM at a particular D-glucose concentration (5 mM D-glucose, GBM7 30 μM, FIM 1 μM, medium B, Emmax 520 nm): 95%
- Change in Emmax for FIM at a particular D-glucose concentration (10 mM D-glucose, GBM7 30 μM, FIM 1 μM, medium B, Emmax 520 nm): 115%
- Change in Emmax for FIM at a particular D-glucose concentration (20 mM D-glucose, GBM7 30 μM, FIM 1 μM, medium B, Emmax 520 nm): 120%

Compound: CC(C)(C)OC(=O)N[C@@H](Cc1cn(CCCC[C@@H](C(=O)NCC(CO[C@@H]2O[C@H](CO)[C@@H](O)[C@H](O)[C@H]2O)c2ccccc2)[N+](C)(C)C)nn1)C(=O)NCCOCCOCCn1cc(CNC(=O)c2ccc3c(c2)C(=O)OC32c3ccc(N)c(S(=O)(=O)[O-])c3Oc3c2ccc(N)c3S(=O)(=O)O)nn1 (stereo partly drawn) [FIM50]
- Change in Emmax for FIM at a particular D-glucose concentration (5 mM D-glucose, GBM7 50 μM, FIM 2 μM, medium B, Emmax 520 nm): 140%
- Change in Emmax for FIM at a particular D-glucose concentration (5 mM D-glucose, GBM15 100 μM, FIM 2 μM, medium B, Emmax 520 nm): 50%
- Change in Emmax for FIM at a particular D-glucose concentration (10 mM D-glucose, GBM7 50 μM, FIM 2 μM, medium B, Emmax 520 nm): 180%
- Change in Emmax for FIM at a particular D-glucose concentration (10 mM D-glucose, GBM15 100 μM, FIM 2 μM, medium B, Emmax 520 nm): 70%
- Change in Emmax for FIM at a particular D-glucose concentration (20 mM D-glucose, GBM7 50 μM, FIM 2 μM, medium B, Emmax 520 nm): 200%
- Change in Emmax for FIM at a particular D-glucose concentration (20 mM D-glucose, GBM15 100 μM, FIM 2 μM, medium B, Emmax 520 nm): 90%
